Reference: US9115169B2, “Method of treating tumors” (Lytix Biopharma AS, priority 2000, dated 2015)
In brackets after ≈: the same amount, converted by molar mass. Read-outs that look alike come from different tables or passages of the source. Where a SMILES comes first, the peptide text is derived from it. [ ]: non-standard residue; d: D form. The star is where a group is joined. Bip = N[C@@H](Cc1ccc(-c2ccccc2)cc1)C(=O)O; 2Nal = N[C@@H](Cc1ccc2ccccc2c1)C(=O)O; Cha = N[C@@H](CC1CCCCC1)C(=O)O; βNA = c1ccc2cc(N*)ccc2c1; OBn = c1ccc(CO*)cc1

Tests used:
[1] = system: MRSA ATCC 33591
[2] = system: Staphylococcus aureus ATCC 25923
[3] = system: Staphylococcus aureus ATCC 25923; conditions: ATCC 25923
[4] = system: Escherichia coli ATCC 25922
[5] = system: MRSE ATCC 27626
[6] = system: MRSE ATCC 27626; remark: listed apart in the source
[7] = system: Escherichia coli ATCC 25922; conditions: ATCC 25922
[8] = system: MRSA ATCC 33591; remark: listed apart in the source
[9] = system: P. aeruginosa

Compound | MIC MRSA ([1]; ATCC 33591) | MIC S. aureus ([2]; ATCC 25923) | MIC E. coli ([4]; ATCC 25922) | MIC MRSE ([6]; ATCC 27626) | MIC P. aerug. [9] | MBC S. aureus [3] | MBC MRSE [5] | MBC E. coli [7] | MBC MRSA [8] | also measured
N=C(N)NCCC[C@H](NC(=O)[C@H](Cc1ccc(O)cc1)NC(=O)[C@H](CCCNC(=N)N)NC(=O)[C@H](Cc1ccc2ccccc2c1)NC(=O)[C@@H](N)CCCNC(=N)N)C(=O)N[C@@H](Cc1ccc2ccccc2c1)C(N)=O [Arg-(2-Nal)-Arg-Tyr-Arg-(2-Nal)NH2] (H-R[2Nal]RYR[2Nal]-NH2; N-terminus assumed) | 2.5 µg/mL (≈ 2.4 µM) | 5 µg/mL (≈ 4.79 µM) | 10 µg/mL (≈ 9.59 µM) | 2.5 µg/mL (≈ 2.4 µM) |  | 5 µg/mL (≈ 4.79 µM) | 2.5 µg/mL (≈ 2.4 µM) | 15 µg/mL (≈ 14.4 µM) | 5 µg/mL (≈ 4.79 µM) | 
N=C(N)NCCC[C@H](NC(=O)[C@@H](N)Cc1ccccc1)C(=O)Nc1ccc2ccccc2c1 [FRβNA] (H-Phe-Arg-βNA) |  |  |  |  |  |  |  |  |  | Minimum inhibitory concentration MRSA ([1]; Table 9): 12.5 µg/mL (≈ 28 µM); Minimum inhibitory concentration S. aureus ([2]; Table 9): 5 µg/mL (≈ 11.2 µM); Minimum inhibitory concentration E. coli ([4]; Table 9): >150 µg/mL; Minimum inhibitory concentration MRSE ([6]; Table 9): 5 µg/mL (≈ 11.2 µM); Minimum inhibitory concentration P. aeruginosa ([9]; Table 9): >300 µg/mL
NCCCC[C@H](N)C(=O)N[C@@H](Cc1c[nH]c2ccccc12)C(=O)OCc1ccccc1 [KW-Obzl] (H-Lys-Trp-OBn; N-terminus assumed) | 37.5 µg/mL (≈ 88.8 µM) | 37.5 µg/mL (≈ 88.8 µM) | >300 µg/mL | 25 µg/mL (≈ 59.2 µM) |  |  |  |  |  | Minimum inhibitory concentration MRSA ([1]; ATCC 33591): 37.5 µg/mL (≈ 88.8 µM); Minimum inhibitory concentration S. aureus ([2]; ATCC 25923): 37.5 µg/mL (≈ 88.8 µM); Minimum inhibitory concentration E. coli ([4]; ATCC 25922): >300 µg/mL; Minimum inhibitory concentration MRSE ([6]; ATCC 27626): 25 µg/mL (≈ 59.2 µM)
NCCCC[C@H](N)C(=O)O[C@@H](Cc1c[nH]c2ccccc12)C(=O)OCc1ccccc1 [Kψ(COO)WOBzl] |  |  |  |  |  |  |  |  |  | Minimum inhibitory concentration MRSA ([1]; ATCC 33591): 100 µg/mL (≈ 236 µM); Minimum inhibitory concentration S. aureus ([2]; ATCC 25923): 50 µg/mL (≈ 118 µM); Minimum inhibitory concentration E. coli ([4]; ATCC 25922): 150 µg/mL (≈ 354 µM); Minimum inhibitory concentration MRSE ([6]; ATCC 27626): 37.5 µg/mL (≈ 88.5 µM); Minimum inhibitory concentration P. aeruginosa [9]: 300 µg/mL (≈ 708 µM)
COC(=O)[C@H](Cc1c[nH]c2ccccc12)NC(=O)[C@@H](N)CCCNC(=N)N [RW-OMe] (H-Arg-Trp-OMe; N-terminus assumed) | >300.0 µg/mL | >300.0 µg/mL | >300.0 µg/mL | 200.0 µg/mL (≈ 534 µM) |  |  |  |  |  | 
COC(=O)[C@H](CCCNC(=N)N)NC(=O)[C@H](Cc1c[nH]c2ccccc12)NC(=O)[C@@H](N)CCCNC(=N)N [RWR-OMe, H-L-Arg-L-Trp-L-Arg-OMe] (H-Arg-Trp-Arg-OMe) |  |  |  |  |  | >200 (>200) μg/ml | 200 µg/mL (≈ 377 µM) | >200 (>200) μg/ml | >200 (>200) μg/ml | 
N=C(N)NCCC[C@H](NC(=O)[C@H](Cc1c[nH]c2ccccc12)NC(=O)[C@@H](N)CCCNC(=N)N)C(=O)N[C@@H](Cc1c[nH]c2ccccc12)C(=O)OCc1ccccc1 [RWRW-OBzl, H-L-Arg-L-Trp-L-Arg-L-Trp-OBzl] (H-RWRW-OBn) | 5 µg/mL (≈ 6.31 µM) | 5 µg/mL (≈ 6.31 µM) | 75 µg/mL (≈ 94.6 µM) | 2.5 (2.5) μg/ml |  | 5 to 10 µg/mL | 2.5 (2.5) μg/ml | 100 µg/mL (≈ 126 µM) | 5 to 10 µg/mL | 

Further lines, with some results ahead:

MIC MRSA ([1]; ATCC 33591) | MIC S. aureus ([2]; ATCC 25923) | MIC E. coli ([4]; ATCC 25922) | MIC MRSE ([6]; ATCC 27626) | MIC P. aerug. [9] | Compound | MBC S. aureus [3] | MBC MRSE [5] | MBC E. coli [7] | MBC MRSA [8] | also measured
5.0 µg/mL (≈ 10.3 µM) | 5.0 µg/mL (≈ 10.3 µM) | 150.0 µg/mL (≈ 308 µM) | 5.0 µg/mL (≈ 10.3 µM) | 100.0 µg/mL (≈ 205 µM) | N=C(N)NCCC[C@H](NC(=O)[C@@H](N)Cc1ccc(-c2ccccc2)cc1)C(=O)OCc1ccccc1 [BipR-OBzl] (H-[Bip]-Arg-OBn; N-terminus assumed) |  |  |  |  | 
50.0 µg/mL (≈ 122 µM) | 150.0 µg/mL (≈ 365 µM) | >300.0 µg/mL | 50.0 µg/mL (≈ 122 µM) | >300.0 µg/mL | COC(=O)[C@H](CCCNC(=N)N)NC(=O)[C@@H](N)Cc1ccc(-c2ccccc2)cc1 [BipR-OMe] (H-[Bip]-Arg-OMe; N-terminus assumed) |  |  |  |  | 
25 to 37.5 µg/mL | 50 to 100 µg/mL | 300.0 µg/mL (≈ 718 µM) | 25.0 µg/mL (≈ 59.9 µM) | >300.0 µg/mL | N=C(N)NCCC[C@H](NC(=O)[C@@H](N)CC1CCCCC1)C(=O)OCc1ccccc1 [ChxAR-OBzl] (H-[Cha]-Arg-OBn; N-terminus assumed) |  |  |  |  | 
 |  |  |  | >300.0 µg/mL | N=C(N)NCCC[C@H](NC(=O)[C@@H](N)Cc1ccccc1)C(=O)OCc1ccccc1 [FR-Obzl] (H-Phe-Arg-OBn; N-terminus assumed) |  |  |  |  | 
25 µg/mL (≈ 55.5 µM) | 50 (50) μg/ml | >200 (>200) μg/ml | 20 (20) μg/ml |  | N=C(N)NCCC[C@H](N)C(=O)N[C@@H](Cc1c[nH]c2ccccc12)C(=O)OCc1ccccc1 [RW OBz] (H-Arg-Trp-OBn) | 50 (50) μg/ml | 20 (20) μg/ml | >200 (>200) μg/ml | 50 µg/mL (≈ 111 µM) | 
